{"source": "patent US20040038950A1", "about": "“Pharmaceutical composition for treating IL-1 related diseases or disorders” (priority 2002, published 2004)", "key": {"TIMP-1 mRNA": {"tested_on": "TIMP-1 mRNA", "test": "RT-PCR of TIMP-1 mRNA in chondrocytes", "type": "cell-based, human", "protocol": "Chondrocytes were isolated from the knee joint of patient undergoing a knee replacement due to osteoarthritis. Cartilage was digested with 0.2% protease Type XIV (Sigma) for 1 hour, followed by 3-hour incubation with 0.2% collagenase Type IA (Sigma) at 37° C. Following the incubation, the undigested cartilage fragments were removed using a 70 μm Nylon sieve. Chondrocytes were washed with DPBS and maintained in monolayer culture for 7 days in Dulbecco's modified Eagle's medium (DMEM; Life Technologies Inc.) which contained 10% fetal bovine serum (FBS; Life Technologies), 100 units/ml penicillin-streptomycin (Life Technologies) and 25 μg/ml L-ascorbic acid (Sigma). All experiments were performed with primary or first passage cells. The preparation of chondrocytes in alginate beads was carried out with 4×10^6 cells per 1 ml of alginate. Alginate cultures were maintained for 7 days at 37° C., 5% CO2 and 95% humidity and incubated with various concentrations of DHEA (0, 10, 50 or 100 μM) for a varing period of time. DHEA was purchased from Sigma and used after dissolving either in ethanol or dimethyl sulfoxide (DMSO). After a desired incubation period, cells were harvested by solubilizing the alginate beads in citrate buffer (55 mM sodium citrate, 0.15 M NaCl, pH 7.0) for 10 min at 37° C. and by centrifugation (300 g, 5 min).\n(§1) Total RNA from chondrocytes was extracted using RNeasy Mini Kit (QIAGEN). Reverse transcription from 1 μg of total RNA was conducted using First Strand cDNA Synthesis Kit (MBI Fermentas) according to manufacturer's recommendation with random hexamers. The resulting cDNA was then amplified by polymerase chain reaction using AccuPower PCR Premix (Bioneer, Korea) in a final volume of 20 μl using three thermocycler temperatures (30 sec at […], 30 sec at 60° C., and 30 sec at […]). All reactions were determined to be in the linear range of amplification with the cycle number ranging from 14 to 30. The PCR products were analyzed by separation on a 2% agarose gel followed by ethidium bromide staining. Following electrophoresis, photographs were taken and analyzed using a densitometric program (TINA; Raytest Isotopenmeβgerate, Germany). Integrated density values for the genes in question were then normalized to the glyceraldehyde-3-phosphate dehydrogenase (GAPDH) values for a semiquantitative assessment. After normalizing with respect to GAPDH, percentage increase or decrease was determined. Each experiment was repeated at least three times. […]"}, "[1]": {"tested_on": "(IL-1β)-induced Cox-2 gene expression", "test": "(IL-1β)-induced Cox-2 gene expression in chondrocytes", "type": "cell-based, human", "conditions": "10, 50, 100 μM with IL-1β, 72 hr", "protocol": "Sixteen hours prior to a treatment, the complete culture medium was replaced with a serum-free medium. Chondrocyte alginate bead cultures were then treated with IL-1β ([…], (Calbiochem) and DHEA (0, 10, 50 or 100 μM) for 3 days.\nas §1"}}}
{"smiles": "C[C@]12CC[C@H](O)CC1=CC[C@@H]1[C@@H]2CC[C@]2(C)C(=O)CC[C@@H]12", "note": "[DHEA, dehyroepiandrosterone]", "values": [{"measurement": "TIMP-1 mRNA expression, maximum rate of enhancement", "setting": "TIMP-1 mRNA; 50 μM, 72 hours", "value": 120, "unit": "%"}, {"measurement": "TIMP-1 mRNA expression, up-regulation", "setting": "TIMP-1 mRNA; 100 μM, after 72 hr", "value": 129, "unit": "%"}, {"measurement": "TIMP-1 mRNA expression", "setting": "TIMP-1 mRNA; 100 μM, up to 48 hr", "value": "unaffected"}, {"measurement": "TIMP-1 mRNA enhancement effect", "setting": "TIMP-1 mRNA; DHEA concentration above 100 μM", "value": "diminished"}, {"measurement": "(IL-1β)-induced Cox-2 gene expression", "setting": "[1]", "value": "no significantly change"}]}
